This is an account of results in article PMC9010763 (The Journal of Biological Chemistry, 2022).

Like-named read-outs stand apart in the source and are kept apart here.

Format in all cases: biochemical
Experiment [1] deals with T1, SLC35B1 (Homo sapiens, UniProt P78383).
T1 construct: isoform 1, C-terminal GFP fusion (hSLC35B1-GFP)
T1 sequence (P78383 1-322): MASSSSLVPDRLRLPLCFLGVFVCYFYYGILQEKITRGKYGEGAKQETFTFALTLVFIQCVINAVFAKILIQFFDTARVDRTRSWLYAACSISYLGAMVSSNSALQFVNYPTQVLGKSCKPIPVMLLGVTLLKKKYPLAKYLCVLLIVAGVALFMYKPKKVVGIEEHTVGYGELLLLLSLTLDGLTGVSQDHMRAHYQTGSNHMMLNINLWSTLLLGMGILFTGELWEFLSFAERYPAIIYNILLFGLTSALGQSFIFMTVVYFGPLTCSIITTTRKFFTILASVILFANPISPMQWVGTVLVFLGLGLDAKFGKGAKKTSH
In words: [α^[…]]ATP uptake competition and counter-exchange, purified protein in PC-liposomes.

In experiment [2] the target is T1, SLC35B1. Put plainly: inhibition of [α^[…]]ATP uptake at […], purified protein in PC-liposomes. As to conditions: read-out: % inhibition at 1 mM.
The target in experiment [3] is T1, SLC35B1. Put plainly: inhibition of [α^[…]]ATP uptake at […]; counter-exchange and efflux, purified protein in PC-liposomes. Particulars: read-out: % inhibition at 1 mM.
Experiment [4] deals with T1, SLC35B1. Put plainly: inhibition of [α^[…]]ATP uptake at […]; counter-exchange, purified protein in PC-liposomes. Particulars: read-out: % inhibition at 1 mM.

In the case of `Nc1ncnc2c1ncn2[C@@H]1O[C@H](COP(=O)(O)OP(=O)(O)O)[C@@H](O)[C@H]1O` [ADP], at SLC35B1 [1] (read-out: Ki), the inhibitory constant (Ki) was 56.1 µM.
On to `Nc1ncnc2c1ncn2[C@@H]1O[C@H](COP(=O)(O)OP(=O)(O)OP(O)(O)=S)[C@@H](O)[C@H]1O` [ATPɣ[-S]], for which the inhibition at 1000 µM on SLC35B1 [2] is over 85%.
For the compound `Nc1ccn([C@@H]2O[C@H](COP(=O)(O)OP(=O)(O)OP(=O)(O)O)[C@@H](O)[C@H]2O)c(=O)n1` [CTP], the inhibition at 1000 µM on SLC35B1 [3] lay within 50 to 60%.
For `Nc1nc2c(ncn2[C@@H]2O[C@H](COP(=O)(O)OP(=O)(O)O)[C@@H](O)[C@H]2O)c(=O)[nH]1` [GDP], at SLC35B1 [3], the inhibition at 1000 µM was 50 to 60%.
Turning to `Nc1nc2c(ncn2[C@@H]2O[C@H](COP(=O)(O)OP(=O)(O)OP(=O)(O)O)[C@@H](O)[C@H]2O)c(=O)[nH]1` [GTP], at SLC35B1 [1] (read-out: Ki), the Ki was determined as 275 µM.
Compound `O=c1ccn([C@@H]2O[C@H](COP(=O)(O)OP(=O)(O)O)[C@@H](O)[C@H]2O)c(=O)[nH]1` [UDP] gave a Ki at SLC35B1 [1] of 83 µM.
For `O=c1ccn([C@@H]2O[C@H](COP(=O)(O)OP(=O)(O)OP(=O)(O)O)[C@@H](O)[C@H]2O)c(=O)[nH]1` [UTP], on SLC35B1 [3], the inhibition at 1000 µM was 70 to 85%.
`Nc1ncnc2c1ncn2[C@H]1C[C@H](O)[C@@H](COP(=O)(O)OP(=O)(O)OP(=O)(O)O)O1` [dATP]: the inhibition at 1000 µM at SLC35B1 [4] is over 85%.

In general, Ki refers to a measure of affinity in units of concentration, obtained from inhibition or displacement. For orientation: inhibition means the percentage by which the read-out fell short of the control.
